Data published in patent publication US7341867B2, “Human preprotachykinin gene promoter” (University of Medicine & Dentistry of New Jersey, priority 1999, dated 2008).

Assays:
Hs578Bst = assay: Clonogenic assay, nontransformed mammary epithelial cells; format: cell-based; settings: 1 mM antagonist, 2 weeks; for # of colonies/10^3 cells (±SD): methyl cellulose matrix
Experimental: (§1) Clonogenic assays studied the proliferation of breast cancer cell lines. Duplicate cultures were performed with 10^3 cells/ml in 1.2% methylcellulose matrix that contained various concentrations (between about 100 to 0.001 mM) of NK-1, NK-2 or (NK-1+NK-2) antagonists. Baseline cultures contained media alone. For each cell line, the assay contained the appropriate culture media. Cultures were incubated for 2 wk at 37° C. This was followed by enumeration of colonies that contained more than 10 cells. In a highly preferred embodiment, the concentration of antagonist is 1 nM.
(§2) Increased expression of PPT-I and NK-1 in breast cancer cells (Tables 1 and 2) led to the next set of experiments. A functional role for these genes in breast cancer is established by determining whether PPT-I peptides, endogenously produced by breast cancer cells, can induce their proliferation through autocrine and/or paracrine mechanisms. This question was addressed in six different experiments using clonogenic assay. […] NK-1 or NK-2 antagonists blunted breast cancer cell proliferation by approximately […] when compared to cultures with media alone (Table 4). […] There was no significant difference (p>0.5) in cell proliferation when normal mammary epithelial cells (MCF12A and H5578Bst) were cultured with the antagonists. […] Reduced colony formation was not due to necrosis since >99% of the cells were trypan blue negative in suspension cultures, performed for two weeks with antagonists.

MCF12A = assay: as above; format: cell-based; settings: 1 mM antagonist, 2 weeks; for # of colonies/10^3 cells (±SD): methyl cellulose matrix
Experimental: as §1, §2

MDAMB-330 = assay: Clonogenic assay, proliferation of breast cancer cell line; format: cell-based; settings: 1 mM antagonist, 2 weeks; for # of colonies/10^3 cells (±SD): methyl cellulose matrix
Experimental: as §1, §2

ZR7530 = assay: as above; format: cell-based; settings: 1 mM antagonist, 2 weeks; for # of colonies/10^3 cells (±SD): methyl cellulose matrix
Experimental: as §1, §2

T47D = assay: as above; format: cell-based; settings: 1 mM antagonist, 2 weeks; for # of colonies/10^3 cells (±SD): methyl cellulose matrix
Experimental: as §1, §2

BT474 = assay: as above; format: cell-based; settings: 1 mM antagonist, 2 weeks; for # of colonies/10^3 cells (±SD): methyl cellulose matrix
Experimental: as §1, §2

Du4475 = assay: as above; format: cell-based; settings: 1 mM antagonist, 2 weeks; for # of colonies/10^3 cells (±SD): methyl cellulose matrix
Experimental: as §1, §2

[1] = test system: PPT-I promoter (Upstream/N0); assay: Luciferase reporter gene assay, pGL3-Upstream/N0 in transfected bone marrow stroma; format: cell-based, human
Experimental: (§3) Transfected bone marrow stroma was stimulated with optimal concentrations of IL-1α (2.5 ng/ml), SCF (8 ng/ml) or 1 nM substance P, SP (Sigma, St Louis, Mo.) and/or 10 nM NK-1-specific antagonist (CP-99,994) in α-MEM with 2% FCS. In other embodiments, bone marrow stroma was stimulated with 5 μg/ml forskolin, FK (Sigma) for 2 and 5 h. SCF was purchased from R&D Systems (Minneapolis, Minn.) and IL-1α was obtained from Hoffman LaRoche, Nutley, N.J. Pfizer, Inc. (Groton, Conn.) provided CP-99,994. Substance P and CP-99,994 were dissolved and stored as described in Ramewshwar et al (1996), supra. Optimal parameters were determined with dose-response and time-course studies.
pGL3-basic with inserts of different fragments from PPT-I-p1.2 was co-transfected with pβ-gal-Control (0.5 μg each) in 80% confluent bone marrow stroma using SuperFect (Qiagen, Valencia, Calif.). After 48 h cells were scraped in 30 μl 250 mM Tris (pH 8.0) and then lysed by freezing and thawing in a dry ice/ethanol bath. Cell-free lysates (24 μl) were obtained by centrifugation at 15,000 g for 5 min at 4° C. and then diluted with 5× cell culture lysis buffer (Promega). Luciferase and β-gal activities were quantitated with 10 μl of lysates using Luciferase assay system (Promega) and Luminescent β-galactosidase detection kit II (Clontech) respectively. In the experimental model, the ratios of Luciferase/β-gal in cells transfected with vector alone ranged from 0.18 to 0.19 and was normalized to 1. Because cytokines induce the promoter upstream of β-gal, in cytokine-stimulated cells, luciferase activity was presented/mg of total protein the levels normalized with stroma transfected with vector alone. Total protein was determined using standard techniquees well known in the art.
Mutations were performed with a mutagenesis kit (Stratagene, La Jolla, Calif.). The desired mutant sequences (Table 1) were synthesized within 40 nt in the forward and reverse directions and then used in PCR with pGL3 containing wild type Upstream/N0. After PCR amplification, mutation was verified by identification of Apa L1 within CRE-like mutant and the loss of Xho 1 in CRE mutant.

β-PPT-I mRNA = assay: Quantitative RT-PCR in stimulated bone marrow stroma; format: cell-based, human; settings: for β-PPT-I (molecules/μg total RNA): 8 ng/ml SCF and/or 10 nM CP-99,994
Experimental: (§4) In a second embodiment of the present invention, bone marrow stroma was stimulated in serum-free α-MEM supplemented with Insulin-transferrin-selenium-A (Life Technologies). Quantitative RT-PCR with total RNA, extracted from bone marrow stroma and construction of standard DNA was performed as described in Singh, D., supra. The end sequences of the standard DNA contained gene-specific sequences that are complementary for the reaction primers. The primers in the standard DNA flank neutral DNA. Total RNA (2 μg) was reverse transcribed and 200 ng cDNA used in PCR with specific oligonucleotide primers for PPT-I, NK-1 or NK-2. Standard DNA, log10 fold dilutions, ranged between 10^−2 to 10^−6 attomole/L. Each unknown sample was assayed with a particular concentration of standard DNA in the same reaction tube. PCR products (10 μl) were separated by electrophoresis on 1.5% agarose containing ethidium bromide and the densities of the DNA bands quantitated with a Fluorimager (Molecular Dynamics, Sunnyvale, Calif.) and then analyzed with ImageQuant software. A standard curve was established for each unknown sample: band densities of unknown/standard DNA vs. Log10 standard DNA concentration was used to determine the concentration of RNA molecules in the unknown samples. The concentration of the unknown sample was selected at the concentration in which the ratio of the unknown and standard were equivalent.
as §3
Confluent bone marrow stroma was stimulated with 25 ng/ml rhIL-1α or 10 ng/ml SCF for 24 h. Poly A RNA was isolated from total RNA by selection (2×) on oligo-dT cellulose (Life Technologies). The cellulose column was washed once with 10 mM Tris, pH 7.0; 0.5 M NaCl; […] and once with 10 mM Tris, pH 7.0; 0.2 M NaCl; […]. Poly A RNA was eluted with 10 mM Tris (pH 7.0) and […]. RNA was precipitated by standard techniques and then resuspended in DEPC-treated water. The purity was verified by the absence of rRNA.

NK-1 mRNA = assay: as above; format: cell-based, human; settings: BM stroma; 8 ng/ml SCF or 2.5 ng/ml IL-1a; 16 h; serum-free α-MEM
Experimental: as §4, §3

NK-2 mRNA = assay: as above; format: cell-based, human; settings: BM stroma; 8 ng/ml SCF or 2.5 ng/ml IL-1a; 16 h; serum-free α-MEM
Experimental: as §4, §3

| Molecule | # of colonies/10^3 cells (±SD) (Hs578Bst) | percentage of cells cultured in media alone (MCF12A) | # of colonies/10^3 cells (±SD) (MCF12A) | percentage of cells cultured in media alone (MDAMB-330) | # of colonies/10^3 cells (±SD) (MDAMB-330) | percentage of cells cultured in media alone (ZR7530) | # of colonies/10^3 cells (±SD) (ZR7530) | percentage of cells cultured in media alone (T47D) | # of colonies/10^3 cells (±SD) (T47D) | percentage of cells cultured in media alone (BT474) | # of colonies/10^3 cells (±SD) (BT474) | percentage of cells cultured in media alone (Du4475) | # of colonies/10^3 cells (±SD) (Du4475) | β-PPT-I (molecules/μg total RNA) (β-PPT-I mRNA; BM stroma, 1 nM SP, 16 h) | also measured |
| --- | --- | --- | --- | --- | --- | --- | --- | --- | --- | --- | --- | --- | --- | --- | --- |
| COc1ccccc1CN[C@H]1C2CCN(CC2)[C@H]1C(c1ccccc1)c1ccccc1 [CP96,345] | 201 ± 12 colonies/10^3 cells | (94%) | 198 ± 18 colonies/10^3 cells | 38% | 65 ± 5 colonies/10^3 cells | 41% | 68 ± 8 colonies/10^3 cells | 40% | 60 ± 4 colonies/10^3 cells | 39% | 70 ± 5 colonies/10^3 cells | 39% | 63 ± 6 colonies/10^3 cells |  |  |
| COc1ccccc1CN[C@H]1CCCN[C@H]1c1ccccc1 [CP-99,994] |  |  |  |  |  |  |  |  |  |  |  |  |  | <1 molecules/μg total RNA | luciferase activity in SCF-stimulated cells in the presence of the antagonist ([1]; 10 nM CP-99,994, SCF-stimulated transfected stroma): significantly reduced; luciferase activity, antagonist alone compared to transfectants with vector alone ([1]; antagonist alone): did not affect; reduction of SP-induced β-PPT-I (β-PPT-I mRNA; 10 nM CP-99,994, 1 nM SP): 7 fold; effect on induction of endogenous PPT-I by SCF (β-PPT-I mRNA; BM stroma, SCF + CP-99,994): bluned |
| CC(=O)NC1(c2ccccc2)CCN(CC[C@H](CN(C)C(=O)c2ccccc2)c2ccc(Cl)c(Cl)c2)CC1 [SR48968] | 210 ± 11 colonies/10^3 cells | 95% | 200 ± 9 colonies/10^3 cells | 38% | 64 ± 4 colonies/10^3 cells | 36% | 60 ± 10 colonies/10^3 cells | 43% | 65 ± 7 colonies/10^3 cells | 36% | 65 ± 8 colonies/10^3 cells | 38% | 60 ± 5 colonies/10^3 cells |  | percentage of cells cultured in media alone (Hs578Bst): 105% |
| substance P (RPKPQQFFGLM) [SP, major PPT-I peptide, preferred ligand for NK-1 (Sigma)] |  |  |  |  |  |  |  |  |  |  |  |  |  | 284 ± 12 molecules/μg total RNA |  |
| IL-1a: cytokine IL-1α obtained from Hoffman LaRoche (protein, UniProt P01583 113-271, looked up) Interleukin-1 alpha: SAPFSFLSNVKYNFMRIIKYEFILNDALNQSIIRANDQYLTAAALHNLDEAVKFDMGAYKSSKDDAKITVILRISKTQLYVTAQDEDQPVLLKEMPEIPKTITGSETNLLFFWETHGTKNYFTSVAHPNLFIATKQDYWVCLAGGPPSITDFQILENQA |  |  |  |  |  |  |  |  |  |  |  |  |  |  | increase in luciferase activities compared to unstimulated cells ([1]; pGL3-Upstream/N0 wild type, optimal SCF or IL-1a, 10 h): 3 fold; induction of luciferase in cells transfected with the double mutants ([1]; pGL3-Upstream/N0 with mutant CRE and CRE-like): no significant induction; NK-1 mRNA (NK-1 mRNA): 8106 ± 91 Molecules/μg total RNA; NK-2 mRNA (NK-2 mRNA): 968 ± 26 Molecules/μg total RNA; β-PPT-I mRNA (β-PPT-I mRNA; BM stroma, 8 ng/ml SCF or 2.5 ng/ml IL-1a, 16 h, serum-free α-MEM): 4849 ± 121 Molecules/μg total RNA; molecules of β-PPT-I/μg poly A (β-PPT-I mRNA; poly A RNA from stroma stimulated with 25 ng/ml rhIL-1α or 10 ng/ml SCF for 24 h, n=6): 250,100±980 molecules of β-PPT-I/μg poly A |
